Data on four molecules can be found in PubChem BioAssay (NCI).

Some test systems named below: HCT-15 colon; SNB-19 CNS; MOLT-4 leukemia; IGROV1 ovarian; CCRF-CEM leukemia; ACHN renal; SK-MEL-2 melanoma; M14 melanoma; SK-MEL-5 melanoma; SK-OV-3 ovarian.
Common to all, as to assay: inhibition of tumour cell growth, NCI panel, 48 h

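Protocol summary: plate cells (96-well), add compound at 5 concentrations, incubate 48 h, interpolate endpoints linearly. GI50: concentration for 50% inhibition of growth. At the TGI there is no net growth.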 A value given as a limit tells only on which side of the number the result lay.

Turning to `C#CCSc1nnnn1-c1ccc(Br)c(C)c1`, the GI50 in the experiment with HCT-15 colon is 29 µM; in the experiment on SNB-19 CNS it was 74 µM; in the experiment with MOLT-4 leukemia, 23.3 µM; in the experiment on IGROV1 ovarian, 2.77 µM; in the experiment with CCRF-CEM leukemia, 29.5 µM; with ACHN renal, 33.1 µM. For the same molecule, the GI50 was 21.6 µM with SK-MEL-2 melanoma, 31.1 µM in the experiment on M14 melanoma, 16.5 µM in the experiment on SK-MEL-5 melanoma and 30 µM in the experiment with SK-OV-3 ovarian. Further, the TGI was over 100 µM in the experiment on HCT-15 colon; over 100 µM with SNB-19 CNS; over 100 µM with MOLT-4 leukemia; 9.16 µM in the experiment with IGROV1 ovarian; over 100 µM in the experiment with CCRF-CEM leukemia; over 100 µM in the experiment with ACHN renal. Further, the TGI is 57 µM with SK-MEL-2 melanoma, over 100 µM with M14 melanoma, 33.9 µM with SK-MEL-5 melanoma and over 100 µM with SK-OV-3 ovarian.
Turning to `COc1cc(-c2cn(-c3ccc(Cl)cc3)c(=O)n2-c2ccccc2)cc(OC)c1OC`, the GI50 is over 100 µM in the experiment on HCT-15 colon; 44.7 µM in the experiment on SNB-19 CNS; 59.6 µM in the experiment on MOLT-4 leukemia; 30.6 µM in the experiment with IGROV1 ovarian; over 100 µM in the experiment on CCRF-CEM leukemia; 34.8 µM in the experiment with ACHN renal. For the same molecule, the GI50 is over 25.9 µM with SK-MEL-2 melanoma, over 100 µM in the experiment on M14 melanoma, 25.3 µM in the experiment with SK-MEL-5 melanoma and 74.9 µM with SK-OV-3 ovarian. Besides, the TGI in the experiment with HCT-15 colon was over 100 µM; in the experiment on SNB-19 CNS, over 100 µM; with MOLT-4 leukemia, over 100 µM; with IGROV1 ovarian it was over 69.2 µM; with CCRF-CEM leukemia it was over 100 µM; in the experiment with ACHN renal, over 100 µM. Further, the TGI in the experiment on SK-MEL-2 melanoma, in the experiment on M14 melanoma, in the experiment on SK-MEL-5 melanoma and with SK-OV-3 ovarian was over 100 µM throughout.
Take `CCN(CC)c1ccc(/C=C/C2=[N+](C)c3ccccc3C2(C)C)cc1`: the GI50 in the experiment on HCT-15 colon was 3.34 µM; in the experiment with SNB-19 CNS, 0.326 µM; in the experiment on MOLT-4 leukemia, 0.557 µM; in the experiment on IGROV1 ovarian, 0.709 µM; in the experiment on CCRF-CEM leukemia, 0.183 µM; with ACHN renal, 1.48 µM. Further, the GI50 with SK-MEL-2 melanoma was 0.487 µM; in the experiment on M14 melanoma, 0.581 µM; in the experiment on SK-MEL-5 melanoma, 0.28 µM; in the experiment with SK-OV-3 ovarian, 0.275 µM. In addition, the TGI with HCT-15 colon was over 49.4 µM; in the experiment with SNB-19 CNS, 15.4 µM; in the experiment on MOLT-4 leukemia, over 100 µM; in the experiment on IGROV1 ovarian, over 85.6 µM; with CCRF-CEM leukemia, over 100 µM; in the experiment with ACHN renal, 14.6 µM. Also, the TGI is over 35.9 µM with SK-MEL-2 melanoma, 19.5 µM in the experiment on M14 melanoma, 1.31 µM with SK-MEL-5 melanoma and 2.79 µM with SK-OV-3 ovarian.
With `Cc1nc(N=C(N)N)nc2ccc3ccccc3c12`, the GI50 in the experiment with HCT-15 colon was 2.99 µM; in the experiment with SNB-19 CNS, 0.942 µM; with MOLT-4 leukemia it was 1.37 µM; with IGROV1 ovarian it was 1.53 µM; in the experiment with CCRF-CEM leukemia, 1.76 µM; with ACHN renal, 1.79 µM. The GI50 is 1.72 µM in the experiment on SK-MEL-2 melanoma, 1.59 µM with M14 melanoma, 1.51 µM in the experiment with SK-MEL-5 melanoma and 1.92 µM in the experiment on SK-OV-3 ovarian. The TGI turned out to be 14.1 µM with HCT-15 colon; 4.89 µM with SNB-19 CNS; 3.62 µM in the experiment on MOLT-4 leukemia; 7.87 µM in the experiment on IGROV1 ovarian; 6.01 µM in the experiment with CCRF-CEM leukemia; 5.15 µM with ACHN renal. Moreover, the TGI in the experiment with SK-MEL-2 melanoma amounted to 3.37 µM; with M14 melanoma it was 3.43 µM; in the experiment with SK-MEL-5 melanoma, 3.32 µM; in the experiment on SK-OV-3 ovarian it was 6.85 µM.
